These results are taken from patent US20240217947A1, “Morpholinylquinazoline Compound, Pharmaceutical compositions thereof and Use Thereof” (SHANGHAI YINGLI PHARMACEUTICAL CO., LTD, priority 2022, published 2024).

SMILES strings stand for the structures. A value given as a limit tells only on which side of the number the result lay.

Format in all cases: biochemical
The target of one assay is T1, HDAC8 (Homo sapiens, UniProt Q9BY41).
T1 sequence (Q9BY41 1-377): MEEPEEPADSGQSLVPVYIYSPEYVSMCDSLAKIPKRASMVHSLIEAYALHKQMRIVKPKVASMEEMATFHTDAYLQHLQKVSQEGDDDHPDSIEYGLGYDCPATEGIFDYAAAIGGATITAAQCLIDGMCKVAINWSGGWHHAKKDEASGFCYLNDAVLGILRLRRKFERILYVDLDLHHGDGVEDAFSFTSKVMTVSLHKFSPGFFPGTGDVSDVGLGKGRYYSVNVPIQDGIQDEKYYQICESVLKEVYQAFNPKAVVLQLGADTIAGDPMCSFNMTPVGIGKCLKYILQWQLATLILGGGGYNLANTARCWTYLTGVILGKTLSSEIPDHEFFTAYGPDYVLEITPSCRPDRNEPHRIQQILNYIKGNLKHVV
The experiment in a line: HDAC8 enzyme activity inhibition IC50 evaluation experiment. As to conditions: HDAC8 10 nM, acetylated peptide 20 μM, 240 min, fluorescence. Here is the method:
Effect Example 3 HDAC8, HDAC10 enzyme activity inhibition IC50 evaluation experiment
Prepare buffer solution (HDAC8: 50 mM Tris 8.0, 2.7 mM KCl, 137 mM NaCl, 1 mM MgCl2, 1 mg/mL BSA; HDAC10: 50 mM Tris 7.5, 0.01% Tween-20, 50 mM NaCl, 0.05 mg/mL BSA) according to the kit instructions, prepared Enzyme solution, substrate solution (acetylated peptide) by using buffer. The test compound samples were dissolved in DMSO and was added to the screening system at a certain starting concentration such as 10 μM, 3-fold dilution, while setting up the DMSO control and the no-enzyme control. The enzyme reaction system includes: buffer, enzyme [final concentration: HDAC8=10 nM, HDAC10=10 nM], substrate (acetylated peptide) [final concentration: Peptide(HDAC8)=20 μM, Peptide(HDAC10)=4 μM], etc. The enzymes and compounds were reacted at room temperature for 15 minutes. After adding the substrate peptide the reaction system was reacted at room temperature for 240 min. Trypsin solution was added [final concentration: Trypsin=50p M] and incubation continued for 120 min. The fluorescence signal data (excitation wavelength 355 nM/emission wavelength 460 nm) was read with Envision instrument. Calculate the inhibition rate at this concentration based on the relative fluorescence units (RFU). The IC50 value was obtained by fitting a curve using the formula Y=Bottom+(Top-Bottom)/(1+(IC50/X)^HillSlope).

In another assay the target is HDAC3 (Homo sapiens, UniProt O15379). The assay can be described thus: HDAC3 enzyme activity inhibition IC50 evaluation experiment. As to conditions: HDAC3 7 nM, acetylated peptide 5 μM, trypsin, fluorescence. Here is the method: (§1) Effect Example 2 HDAC1, HDAC2, HDAC3, HDAC6 enzyme activity inhibition IC50 evaluation experiment
Sequence of HDAC3 (O15379 whole entry, species assumed): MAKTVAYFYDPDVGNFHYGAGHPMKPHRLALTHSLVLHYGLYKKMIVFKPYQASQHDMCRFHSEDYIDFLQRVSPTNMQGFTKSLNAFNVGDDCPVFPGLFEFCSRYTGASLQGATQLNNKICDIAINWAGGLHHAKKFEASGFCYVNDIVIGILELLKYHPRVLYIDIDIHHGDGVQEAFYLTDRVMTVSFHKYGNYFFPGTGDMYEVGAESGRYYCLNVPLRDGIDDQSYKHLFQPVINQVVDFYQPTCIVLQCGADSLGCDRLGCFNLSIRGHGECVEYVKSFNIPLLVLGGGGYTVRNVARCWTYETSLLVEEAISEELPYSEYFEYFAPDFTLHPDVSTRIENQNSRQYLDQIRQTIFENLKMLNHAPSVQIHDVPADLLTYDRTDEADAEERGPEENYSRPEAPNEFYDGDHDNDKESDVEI
Sequence of HDAC3 (Q9Y618 395-489 partner limits assumed, species assumed): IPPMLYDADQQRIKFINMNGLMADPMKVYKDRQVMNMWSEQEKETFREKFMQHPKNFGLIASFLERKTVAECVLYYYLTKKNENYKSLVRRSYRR
(§2) Buffer solution (50 mM Tris 7.5, 0.01% Tween-20, 50 mM NaCl) was prepared according to the kit instructions, and the enzyme solution and substrate solution (acetylated peptide with the addition of trypsin) were prepared using the buffer solution. The test compound samples were dissolved with DMSO and added to the screening system at a certain starting concentration such as 10 μM, 3-fold dilution, while setting up a DMSO control and no-enzyme control. The enzyme reaction system includes: buffer, enzyme [final concentration: HDAC1=10 nM, HDAC2=4 nM, HDAC3=7 nM, HDAC6=5 nM], substrate (acetylated peptide) [final concentration: Peptide(HDAC1)=8 μM, Peptide(HDAC2)=10 μM, Peptide(HDAC3)=5 μM, Peptide(HDAC6)=11 μM], trypsin [final concentration: Trypsin(HDAC1,2,3)=0.05 μM, Trypsin(HDAC6)=0.1 μM], etc. The enzymes and compounds were reacted at room temperature for 15 min. After adding the substrate and Trypsin, centrifugation was performed for 1 min, and the fluorescence signal data (excitation wavelength 355 nM/emission wavelength 460 nm) was read continuously for 60 min using Envision, and the linear reaction segment was selected to obtain the slope and thus calculate the inhibition rate at that concentration. The IC50 value was obtained by fitting the curve using the formula Y=Bottom+(Top-Bottom)/(1+(IC50/X)^HillSlope).

The next assay concerns the target HDAC2 (Homo sapiens, UniProt Q92769). The assay can be described thus: HDAC2 enzyme activity inhibition IC50 evaluation experiment. Particulars: HDAC2 4 nM, acetylated peptide 10 μM, trypsin, fluorescence. Here is the method: as §1, §2
The target in a further assay is PI3Kδ (Homo sapiens, UniProt O00329). The assay can be described thus: PI3Kδ enzyme activity inhibition IC50 evaluation assay (ADP-Glo Kinase Assay). As to conditions: ATP 25 μM, PIP2 50 μg/mL, 1 hour room temperature, read-out: PI3K-δ IC50. Here is the method:
Effec Example 1 IC50 evaluation assay for PI3Kα, PI3Kδ, PI3Kβ and PI3Kγ enzyme activity inhibition
The experiment was performed using the ADP-Glo Kinase Assay kit, following the instructions. The following buffer solutions were prepared: 50 mM HEPES, pH 7.5, 3 mM MgCl2, 1 mM EGTA, 100 mM NaCl, 0.03% CHAPS, 2 mM DTT. The test compound samples were dissolved in DMSO and added to the screening system at a certain starting concentration such as 10 μM, 3-fold dilution, while setting up both DMSO control and no kinase control. The optimal concentrations of PI3Kα, PI3Kδ, PI3Kβ and PI3Kγ enzymes, substrate (PIP2) and ATP were prepared in buffer. The enzyme reaction system included: buffer, ATP 25 μM, kinase substrate (PIP2, 50 μg/mL), kinases [PI3Kα (0.15 μg/mL), PI3Kδ (1.2 μg/mL), PI3Kβ (0.3 μg/mL) and PI3Kγ (2.5 μg/mL)], etc. The reaction system was reacted at room temperature for 1 hour. The reaction was terminated by adding a termination reagent (ADP-Glo reagent, 5 μL), and the ADP content in the system was detected using a detection reagent (Kinase Detection Reagent, 10 μL). Signal data were collected using the Envision instrument. Calculate the percentage of (%) inhibition according to the following formula: % inhibition=(DMSO control signal value−sample signal value)/(DMSO control signal value−no-kinase control signal value). The IC50 value was obtained by fitting the curve using the formula Y=Bottom+(Top-Bottom)/(1+(IC50/X)^HillSlope).
In general terms: ADP-Glo turns the ADP formed in a reaction into a luminescent signal.

Sequence of HDAC2 (Q92769 whole entry, species assumed): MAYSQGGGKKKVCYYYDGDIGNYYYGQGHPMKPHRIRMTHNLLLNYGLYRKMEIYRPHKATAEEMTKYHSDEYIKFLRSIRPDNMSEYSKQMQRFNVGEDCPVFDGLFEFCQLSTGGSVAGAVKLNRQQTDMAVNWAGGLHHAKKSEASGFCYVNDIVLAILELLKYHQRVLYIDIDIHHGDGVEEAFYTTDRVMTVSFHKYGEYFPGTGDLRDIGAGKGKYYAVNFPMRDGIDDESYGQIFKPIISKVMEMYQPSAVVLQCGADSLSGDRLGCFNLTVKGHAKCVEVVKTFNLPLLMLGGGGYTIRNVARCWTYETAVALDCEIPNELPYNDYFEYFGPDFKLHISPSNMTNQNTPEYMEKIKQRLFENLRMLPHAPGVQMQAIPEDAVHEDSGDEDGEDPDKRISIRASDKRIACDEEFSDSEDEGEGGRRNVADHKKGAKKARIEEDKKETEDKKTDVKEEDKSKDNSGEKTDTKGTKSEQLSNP
Sequence of PI3Kδ (O00329 whole entry, species assumed): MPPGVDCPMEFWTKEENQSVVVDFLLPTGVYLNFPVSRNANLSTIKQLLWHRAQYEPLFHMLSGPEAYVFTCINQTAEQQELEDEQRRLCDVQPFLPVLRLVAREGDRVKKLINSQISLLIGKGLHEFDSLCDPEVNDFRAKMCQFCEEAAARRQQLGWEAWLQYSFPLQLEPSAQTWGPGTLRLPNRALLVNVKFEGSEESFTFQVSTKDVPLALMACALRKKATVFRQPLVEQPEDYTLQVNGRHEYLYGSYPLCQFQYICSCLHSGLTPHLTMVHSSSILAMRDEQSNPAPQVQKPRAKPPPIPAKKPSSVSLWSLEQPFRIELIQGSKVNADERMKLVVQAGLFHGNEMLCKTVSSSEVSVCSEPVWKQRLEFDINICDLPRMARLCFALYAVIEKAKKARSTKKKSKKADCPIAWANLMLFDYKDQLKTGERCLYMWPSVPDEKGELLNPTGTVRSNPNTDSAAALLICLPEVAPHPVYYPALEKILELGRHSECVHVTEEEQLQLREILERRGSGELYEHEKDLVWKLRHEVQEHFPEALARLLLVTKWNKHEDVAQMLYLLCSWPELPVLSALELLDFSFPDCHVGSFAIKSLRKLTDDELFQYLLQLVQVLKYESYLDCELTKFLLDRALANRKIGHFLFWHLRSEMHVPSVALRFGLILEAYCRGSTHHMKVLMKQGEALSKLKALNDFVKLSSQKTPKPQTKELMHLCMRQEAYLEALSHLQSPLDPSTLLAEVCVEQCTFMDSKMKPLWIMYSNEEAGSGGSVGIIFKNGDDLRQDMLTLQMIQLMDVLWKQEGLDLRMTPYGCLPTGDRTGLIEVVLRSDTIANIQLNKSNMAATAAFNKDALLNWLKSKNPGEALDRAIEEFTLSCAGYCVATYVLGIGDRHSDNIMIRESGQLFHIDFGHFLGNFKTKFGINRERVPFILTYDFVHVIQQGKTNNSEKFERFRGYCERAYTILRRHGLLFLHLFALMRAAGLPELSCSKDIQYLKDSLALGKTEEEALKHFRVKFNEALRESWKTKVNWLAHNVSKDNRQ
Sequence of PI3Kδ (P27986 whole entry partner, species assumed): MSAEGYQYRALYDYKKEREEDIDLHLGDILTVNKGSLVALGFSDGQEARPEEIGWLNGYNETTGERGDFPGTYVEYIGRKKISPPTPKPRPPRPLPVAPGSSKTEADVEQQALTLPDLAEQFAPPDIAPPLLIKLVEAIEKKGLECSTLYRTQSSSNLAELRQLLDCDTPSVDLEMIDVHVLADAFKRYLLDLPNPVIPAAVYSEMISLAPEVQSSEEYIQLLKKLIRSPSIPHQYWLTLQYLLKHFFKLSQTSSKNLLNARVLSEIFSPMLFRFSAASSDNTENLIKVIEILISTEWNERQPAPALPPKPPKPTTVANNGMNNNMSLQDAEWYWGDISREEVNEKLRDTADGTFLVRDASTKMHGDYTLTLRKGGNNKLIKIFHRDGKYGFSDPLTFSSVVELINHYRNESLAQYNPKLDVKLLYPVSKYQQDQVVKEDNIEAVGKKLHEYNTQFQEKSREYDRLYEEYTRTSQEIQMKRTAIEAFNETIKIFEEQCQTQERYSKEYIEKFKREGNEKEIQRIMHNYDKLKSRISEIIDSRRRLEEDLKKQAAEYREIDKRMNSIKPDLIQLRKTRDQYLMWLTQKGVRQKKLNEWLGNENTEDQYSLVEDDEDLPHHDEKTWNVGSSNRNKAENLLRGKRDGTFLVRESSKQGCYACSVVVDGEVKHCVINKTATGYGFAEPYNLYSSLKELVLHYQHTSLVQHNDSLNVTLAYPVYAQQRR

The term IC50 denotes the concentration that gives 50% inhibition. As for `COc1ncc(-c2nc(N3CCOCC3)nc3c(OC4CCN(c5ccc(C(=O)NO)cn5)CC4)cc(F)cc23)cc1NS(C)(=O)=O` [Compound 40], the concentration for half-maximal inhibition (IC50) against HDAC8 was 1000 to 10000 nM; at HDAC3, 100 to 1000 nM; against HDAC2, 100 to 1000 nM; on PI3Kδ it was at most 10 nM.
Regarding `COc1ncc(-c2nc(N3CCOCC3)nc3c(OC4CCN(c5ncc(C(=O)NO)cc5F)CC4)cc(F)cc23)cc1NS(C)(=O)=O` [Compound 30], the IC50 on HDAC8 was 100 to 1000 nM; on HDAC3, 100 to 1000 nM; on HDAC2, 100 to 1000 nM; at PI3Kδ it was 10 to 100 nM.
As to `COc1ncc(-c2nc(N3CCOCC3)nc3c(CN4CCN(c5ncc(C(=O)NO)cn5)CC4)cc(F)cc23)cc1NS(C)(=O)=O` [Compound 7], the IC50 is 10 to 100 nM on HDAC3, 10 to 100 nM on HDAC2 and at most 10 nM on PI3Kδ.
On to `COc1ncc(-c2nc(N3CCOCC3)nc3c(OC4CCN(c5ncc(C(=O)NO)cn5)CC4)cc(F)cc23)cc1NS(C)(=O)=O` [Compound 39], for which the IC50 at HDAC8 was 100 to 1000 nM; against HDAC3, 10 to 100 nM; at HDAC2 it was 10 to 100 nM; at PI3Kδ, at most 10 nM.
`COc1ncc(-c2nc(N3CCOCC3)nc3c(OCCCCCCC(=O)NO)cc(F)cc23)cc1NS(C)(=O)=O` [Compound 9]: the IC50 on HDAC3 is 10 to 100 nM; against HDAC2 it was at most 10 nM; at PI3Kδ it was 10 to 100 nM.
